Results on 14 molecules are retold here after ChEMBL document CHEMBL1157966, “Synthesis of salvinorin A analogues as opioid receptor probes” (J Nat Prod, 2006).

The nature of assay [1]: Selectivity ratio of Ki for delta opioid receptor to kappa opioid receptor.
A short description of assay [2]: Selectivity ratio of Ki for mu opioid receptor to kappa opioid receptor.
Assay [3] concerns the target Delta-type opioid receptor (Homo sapiens, UniProt P41143). The assay is described as follows: Displacement of [125]OXY from delta opioid receptor.
Assay [4] addresses Kappa-type opioid receptor (Homo sapiens, UniProt P41145). The assay can be described thus: Displacement of [125]OXY from kappa opioid receptor.
A further assay has as its target Mu-type opioid receptor (Homo sapiens, UniProt P35372). The assay can be described thus: Displacement of [125]OXY from mu opioid receptor.

Chain of Delta-type opioid receptor (P41143 whole entry): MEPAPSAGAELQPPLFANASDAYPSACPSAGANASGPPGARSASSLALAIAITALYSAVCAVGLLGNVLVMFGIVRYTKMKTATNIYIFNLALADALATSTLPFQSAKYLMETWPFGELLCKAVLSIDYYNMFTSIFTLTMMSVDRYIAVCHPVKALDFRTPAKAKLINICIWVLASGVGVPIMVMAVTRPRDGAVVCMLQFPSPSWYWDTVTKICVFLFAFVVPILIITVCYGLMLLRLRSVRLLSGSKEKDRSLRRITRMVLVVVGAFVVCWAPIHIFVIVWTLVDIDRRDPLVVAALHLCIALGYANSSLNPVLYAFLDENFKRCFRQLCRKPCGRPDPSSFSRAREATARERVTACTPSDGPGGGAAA
Chain of Mu-type opioid receptor (P35372 whole entry): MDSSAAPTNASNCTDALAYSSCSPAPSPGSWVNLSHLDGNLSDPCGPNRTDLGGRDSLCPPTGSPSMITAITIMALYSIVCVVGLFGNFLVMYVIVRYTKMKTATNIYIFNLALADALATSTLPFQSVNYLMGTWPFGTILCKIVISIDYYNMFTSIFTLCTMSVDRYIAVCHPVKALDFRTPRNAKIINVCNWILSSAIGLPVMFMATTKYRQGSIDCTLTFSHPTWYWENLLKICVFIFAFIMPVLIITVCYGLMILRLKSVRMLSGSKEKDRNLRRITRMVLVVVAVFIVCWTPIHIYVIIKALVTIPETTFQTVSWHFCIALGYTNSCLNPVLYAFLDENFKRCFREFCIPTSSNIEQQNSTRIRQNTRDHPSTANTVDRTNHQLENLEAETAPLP
Chain of Kappa-type opioid receptor (P41145 whole entry): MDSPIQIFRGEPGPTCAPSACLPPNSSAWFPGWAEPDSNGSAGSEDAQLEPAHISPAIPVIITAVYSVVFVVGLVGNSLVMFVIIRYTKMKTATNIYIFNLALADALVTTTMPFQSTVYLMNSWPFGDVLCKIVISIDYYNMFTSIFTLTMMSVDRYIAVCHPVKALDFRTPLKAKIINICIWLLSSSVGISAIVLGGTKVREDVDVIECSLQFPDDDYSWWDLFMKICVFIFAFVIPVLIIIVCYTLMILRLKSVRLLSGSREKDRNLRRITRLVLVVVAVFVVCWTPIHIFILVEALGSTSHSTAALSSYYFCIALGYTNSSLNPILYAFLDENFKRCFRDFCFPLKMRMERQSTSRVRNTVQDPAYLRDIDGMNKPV

For the molecule `CCC(=O)O[C@H]1C[C@@H](C(=O)OC)[C@]2(C)CC[C@H]3C(=O)O[C@H](c4ccoc4)C[C@]3(C)[C@H]2C1=O`, the Ratio Ki in assay [1] is 2730; in assay [2], above 560.

One may read the Ki as a measure of affinity in units of concentration, obtained from inhibition or displacement. On to `COC(=O)[C@@H]1C[C@H](OS(=O)(=O)c2ccccc2)C(=O)[C@H]2[C@@]1(C)CCC1C(=O)O[C@H](c3ccoc3)C[C@@]12C` (single isomer, unassigned), for which the results for the inhibition constant (Ki) (in assay [3]; in assay [4]; at Mu-type opioid receptor) were above 10 µM, 0.06 µM and above 10 µM, respectively. For the same molecule, the Ratio Ki in assay [1] and in assay [2] was above 150 throughout.

As for `CCCCC(=O)O[C@H]1C[C@@H](C(=O)OC)[C@]2(C)CCC3C(=O)O[C@H](c4ccoc4)C[C@]3(C)[C@H]2C1=O` (single isomer, unassigned), the inhibition constant (Ki) in assay [3] turned out to be 3.97 µM; in assay [4] it was 0.015 µM; on Mu-type opioid receptor it was 0.31 µM. Also, the Ratio Ki came to 265 in assay [1] and 21 in assay [2].

As to `CCCC(=O)O[C@H]1C[C@@H](C(=O)OC)[C@]2(C)CCC3C(=O)O[C@H](c4ccoc4)C[C@]3(C)[C@H]2C1=O` (single isomer, unassigned), the Ki in assay [3] came out at 4.03 µM; in assay [4], 0.004 µM; on Mu-type opioid receptor, 0.52 µM. Moreover, the figures for the Ratio Ki in assay [1] and in assay [2] were 1010 and 130, respectively.

For `COC(=O)[C@@H]1C[C@H](OS(=O)(=O)c2ccc(C)cc2)C(=O)[C@H]2[C@@]1(C)CCC1C(=O)O[C@H](c3ccoc3)C[C@@]12C` (single isomer, unassigned), the inhibition constant (Ki) in assay [3] is 3.72 µM; in assay [4], 0.05 µM; at Mu-type opioid receptor, 0.22 µM. The Ratio Ki in assay [1] worked out at 74; in assay [2], 4.

Consider `COC(=O)[C@@H]1C[C@H](OC(=O)c2ccccc2)C(=O)[C@H]2[C@@]1(C)CC[C@H]1C(=O)O[C@H](c3ccoc3)C[C@]21C`, for which the Ratio Ki in assay [1] was 12; in assay [2], 0.13.

For `COC(=O)[C@@H]1C[C@H](OC(=O)c2cccs2)C(=O)[C@H]2[C@@]1(C)CC[C@H]1C(=O)O[C@H](c3ccoc3)C[C@]21C`, the inhibition constant Ki in assay [3] was determined as 1.38 µM; in assay [4] it was 0.26 µM; on Mu-type opioid receptor, 0.01 µM. The values for the Ratio Ki in assay [1] and in assay [2] were 5 and 0.04, respectively.

`CCCCCC(=O)O[C@H]1C[C@@H](C(=O)OC)[C@]2(C)CCC3C(=O)O[C@H](c4ccoc4)C[C@]3(C)[C@H]2C1=O` (single isomer, unassigned): the Ki came to 4.24 µM in assay [3], 0.07 µM in assay [4] and 0.52 µM on Mu-type opioid receptor. Besides, the figures for the Ratio Ki in assay [1] and in assay [2] were 61 and 7, respectively.

As for `COC(=O)[C@@H]1C[C@H](OC(=O)Cc2ccccc2)C(=O)[C@H]2[C@@]1(C)CCC1C(=O)O[C@H](c3ccoc3)C[C@@]12C` (single isomer, unassigned), the inhibition constant (Ki) is above 10 µM in assay [3], 0.29 µM in assay [4] and 1.09 µM at Mu-type opioid receptor. Moreover, the results for the Ratio Ki in assay [1] and in assay [2] were above 30 and 4, respectively.

`COC(=O)[C@@H]1C[C@H](OC(=O)c2ccccc2Br)C(=O)[C@H]2[C@@]1(C)CCC1C(=O)O[C@H](c3ccoc3)C[C@@]12C` (single isomer, unassigned): the Ki in assay [3] is above 10 µM; in assay [4] it was 0.09 µM; at Mu-type opioid receptor, 0.11 µM. In addition, the Ratio Ki in assay [1] is above 100; in assay [2] it was 1.2.

On to `COC(=O)[C@@H]1C[C@H](OC(=O)c2ccc(Br)cc2)C(=O)[C@H]2[C@@]1(C)CCC1C(=O)O[C@H](c3ccoc3)C[C@@]12C` (single isomer, unassigned), for which the inhibitory constant (Ki) in assay [3] stood at 1.41 µM; in assay [4], 0.74 µM; on Mu-type opioid receptor it was 0.01 µM. In addition, the values for the Ratio Ki in assay [1] and in assay [2] were 2 and 0.01, respectively.

For `COC(=O)[C@@H]1C[C@H](OC(=O)CNC(=O)OC(C)(C)C)C(=O)[C@H]2[C@@]1(C)CCC1C(=O)O[C@H](c3ccoc3)C[C@@]12C` (single isomer, unassigned), the inhibition constant (Ki) in assay [3] is above 10 µM; in assay [4], 0.09 µM; on Mu-type opioid receptor, 5.66 µM. In addition, the Ratio Ki in assay [1] is above 100; in assay [2] it was 63.

For `COC(=O)[C@@H]1C[C@H](OC(=O)CCc2ccccc2)C(=O)[C@H]2[C@@]1(C)CC[C@H]1C(=O)O[C@H](c3ccoc3)C[C@]21C`, the Ki in assay [3] was 9.33 µM; in assay [4] it was 0.18 µM; at Mu-type opioid receptor, 0.28 µM. The figures for the Ratio Ki in assay [1] and in assay [2] were 52 and 2, respectively.

Regarding `COC(=O)[C@@H]1C[C@H](OC(=O)c2cccc(Br)c2)C(=O)[C@H]2[C@@]1(C)CCC1C(=O)O[C@H](c3ccoc3)C[C@@]12C` (single isomer, unassigned), the Ki in assay [3] was above 10 µM; in assay [4], 0.07 µM; on Mu-type opioid receptor, 0.11 µM. The Ratio Ki is above 100 in assay [1] and 1.6 in assay [2].
